Source: ChEMBL document CHEMBL1201862, “PubChem BioAssay data set” (2004)
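How tested: cells in 96-well plates exposed to compound for 48 hours at five concentrations. At the GI50, growth is halved.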 Active and inactive are the calls of the source. Rule as the data show it: active = GI50 up to about 1.1 µM and inactive = higher.

Tests used:
Experiment in all cases: inhibition of tumour cell growth, NCI panel, 48 h
[1] = tested on: DLD-1
[2] = tested on: SF-539
[3] = tested on: LOX IMVI
[4] = tested on: HL-60
[5] = tested on: MOLT-4
[6] = tested on: SW-620
[7] = tested on: SF-295
[8] = tested on: UACC-62
[9] = tested on: SN12C
[10] = tested on: RPMI-8226
[11] = tested on: OVCAR-3
[12] = tested on: SK-MEL-2
[13] = tested on: KM-20L2
[14] = tested on: XF498
[15] = tested on: SF-268
[16] = tested on: A498
[17] = tested on: RXF 393
[18] = tested on: HCT-116
[19] = tested on: HT-29
[20] = tested on: HCT-15
[21] = tested on: IGROV-1
[22] = tested on: CCRF-CEM
[23] = tested on: Malme-3M
[24] = tested on: NCI-H522
[25] = tested on: M14
[26] = tested on: TK-10
[27] = tested on: SK-MEL-5
[28] = tested on: SNB-75
[29] = tested on: OVCAR-4
[30] = tested on: A549
[31] = tested on: SNB-19
[32] = tested on: HOP-18
[33] = tested on: ACHN
[34] = tested on: OVCAR-8
[35] = tested on: HOP-92
[36] = tested on: NCI-H23
[37] = tested on: EKVX
[38] = tested on: DMS-273
[39] = tested on: HOP-62
[40] = tested on: UO-31
[41] = tested on: KM12
[42] = tested on: U-251
[43] = tested on: SK-MEL-28
[44] = tested on: SK-OV-3
[45] = tested on: K562
[46] = tested on: HCC 2998
[47] = tested on: OVCAR-5
[48] = tested on: SR
[49] = tested on: NCI-H460
[50] = tested on: NCI-H226
[51] = tested on: UACC-257
[52] = tested on: SNB-78
[53] = tested on: DMS-114
[54] = tested on: NCI/ADR-RES
[55] = tested on: CAKI-1
[56] = tested on: M19-MEL
[57] = tested on: MCF7
[58] = tested on: COLO 205
[59] = tested on: LXFL 529
[60] = tested on: 786-0

Question: What does the source list for `C=CCOCCC(CC=C)C(=O)CC(=O)OC` (stereo not given)?
Answer: GI50 [1]: > 100 µM (inactive); GI50 [2]: > 100 µM (inactive); GI50 [3]: 27.9 µM (inactive); GI50 [4]: 13.5 µM (inactive); GI50 [5]: 28.5 µM (inactive); GI50 [6]: > 100 µM (inactive); GI50 [7]: > 100 µM (inactive); GI50 [8]: 52.8 µM (inactive); GI50 [9]: > 100 µM (inactive); GI50 [10]: 25.3 µM (inactive); GI50 [11]: > 100 µM (inactive); GI50 [12]: > 100 µM (inactive); GI50 [13]: > 100 µM (inactive); GI50 [14]: > 100 µM (inactive); GI50 [15]: > 100 µM (inactive); GI50 [16]: > 100 µM (inactive); GI50 [17]: > 100 µM (inactive); GI50 [18]: 45.6 µM (inactive); GI50 [19]: > 100 µM (inactive); GI50 [20]: > 100 µM; GI50 [21]: > 100 µM (inactive); GI50 [22]: 4.23 µM (inactive); GI50 [23]: > 100 µM (inactive); GI50 [24]: > 100 µM (inactive); GI50 [25]: > 100 µM (inactive); GI50 [26]: > 100 µM (inactive); GI50 [27]: > 100 µM (inactive); GI50 [28]: 25.9 µM (inactive); GI50 [29]: > 100 µM (inactive); GI50 [30]: > 100 µM (inactive); GI50 [31]: > 100 µM (inactive); GI50 [32]: > 100 µM (inactive); GI50 [33]: > 100 µM (inactive); GI50 [34]: > 100 µM (inactive); GI50 [35]: 90.4 µM (inactive); GI50 [36]: > 100 µM (inactive); GI50 [37]: > 100 µM (inactive); GI50 [38]: 45.3 µM (inactive); GI50 [39]: > 100 µM (inactive); GI50 [40]: > 100 µM (inactive); GI50 [41]: > 100 µM (inactive); GI50 [42]: > 100 µM (inactive); GI50 [43]: > 100 µM (inactive); GI50 [44]: > 100 µM (inactive); GI50 [45]: 19.3 µM (inactive); GI50 [46]: > 100 µM (inactive); GI50 [47]: > 100 µM (inactive); GI50 [48]: 3.56 µM (inactive); GI50 [49]: > 100 µM (inactive); GI50 [50]: > 100 µM (inactive); GI50 [51]: > 100 µM (inactive)

Question: With `c1ccc2c(c1)NCc1cc3ccccc3nc1O2` as the molecule, how does the GI50 [1] read?
Answer: Its GI50 is > 100 µM (inactive).

Question: And the GI50 [2]?
Answer: The GI50 was > 100 µM (inactive).

Question: What about the GI50 [3] of the same molecule?
Answer: The GI50 was 97.1 µM (inactive).

Question: And the GI50 [4]?
Answer: The GI50 was 55.6 µM (inactive).

Question: What about the GI50 [5] of the same molecule?
Answer: The GI50 was 83 µM (inactive).

Question: And the GI50 [6]?
Answer: The GI50 was > 100 µM (inactive).

Question: And the GI50 [52]?
Answer: Its GI50 is > 100 µM (inactive).

Question: And the GI50 [7]?
Answer: The GI50 was > 100 µM (inactive).

Question: What about the GI50 [8] of the same molecule?
Answer: The GI50 was > 100 µM (inactive).

Question: And the GI50 [9]?
Answer: Its GI50 is > 100 µM (inactive).

Question: And the GI50 [10]?
Answer: The GI50 was > 100 µM (inactive).

Question: What about the GI50 [11] of the same molecule?
Answer: Its GI50 is > 100 µM (inactive).

Question: And the GI50 [12]?
Answer: The GI50 was > 100 µM (inactive).

Question: What about the GI50 [14] of the same molecule?
Answer: Its GI50 is > 100 µM (inactive).

Question: What about the GI50 [53] of the same molecule?
Answer: The GI50 was 99.5 µM (inactive).

Question: And the GI50 [15]?
Answer: The GI50 was > 100 µM (inactive).

Question: What about the GI50 [16] of the same molecule?
Answer: Its GI50 is > 75.5 µM (inactive).

Question: What about the GI50 [17] of the same molecule?
Answer: Its GI50 is > 100 µM (inactive).

Question: What about the GI50 [18] of the same molecule?
Answer: Its GI50 is > 100 µM (inactive).

Question: And the GI50 [19]?
Answer: Its GI50 is 71.6 µM (inactive).

Question: What about the GI50 [54] of the same molecule?
Answer: Its GI50 is > 77.8 µM (inactive).

Question: And the GI50 [20]?
Answer: The GI50 was greater than 100 µM.

Question: What about the GI50 [21] of the same molecule?
Answer: Its GI50 is > 100 µM (inactive).

Question: What about the GI50 [22] of the same molecule?
Answer: The GI50 was > 68.5 µM (inactive).

Question: And the GI50 [23]?
Answer: Its GI50 is > 100 µM (inactive).

Question: And the GI50 [55]?
Answer: The GI50 was > 100 µM (inactive).

Question: What about the GI50 [24] of the same molecule?
Answer: Its GI50 is > 100 µM (inactive).

Question: And the GI50 [27]?
Answer: The GI50 was > 100 µM (inactive).

Question: And the GI50 [56]?
Answer: Its GI50 is > 100 µM (inactive).

Question: And the GI50 [28]?
Answer: The GI50 was > 84.5 µM (inactive).

Question: And the GI50 [29]?
Answer: Its GI50 is > 100 µM (inactive).

Question: And the GI50 [30]?
Answer: The GI50 was > 100 µM (inactive).

Question: What about the GI50 [31] of the same molecule?
Answer: The GI50 was > 100 µM (inactive).

Question: And the GI50 [32]?
Answer: The GI50 was > 100 µM (inactive).

Question: What about the GI50 [34] of the same molecule?
Answer: Its GI50 is > 100 µM (inactive).

Question: And the GI50 [35]?
Answer: Its GI50 is > 100 µM (inactive).

Question: What about the GI50 [36] of the same molecule?
Answer: The GI50 was > 100 µM (inactive).

Question: And the GI50 [37]?
Answer: The GI50 was > 100 µM (inactive).

Question: And the GI50 [38]?
Answer: The GI50 was > 100 µM (inactive).

Question: What about the GI50 [57] of the same molecule?
Answer: The GI50 was 16 µM (inactive).

Question: And the GI50 [39]?
Answer: Its GI50 is > 100 µM (inactive).

Question: And the GI50 [40]?
Answer: Its GI50 is 26.9 µM (inactive).

Question: And the GI50 [41]?
Answer: Its GI50 is > 100 µM (inactive).

Question: What about the GI50 [43] of the same molecule?
Answer: Its GI50 is > 100 µM (inactive).

Question: And the GI50 [44]?
Answer: Its GI50 is > 100 µM (inactive).

Question: And the GI50 [45]?
Answer: The GI50 was > 100 µM (inactive).

Question: And the GI50 [46]?
Answer: The GI50 was > 100 µM (inactive).

Question: And the GI50 [47]?
Answer: The GI50 was > 100 µM (inactive).

Question: What about the GI50 [49] of the same molecule?
Answer: Its GI50 is > 100 µM (inactive).

Question: And the GI50 [50]?
Answer: The GI50 was > 40.7 µM (inactive).

Question: What about the GI50 [51] of the same molecule?
Answer: The GI50 was > 100 µM (inactive).

Question: What about the GI50 [58] of the same molecule?
Answer: The GI50 was > 100 µM (inactive).

Question: Which results are given for `Cc1c(NC(=S)NC(=O)c2ccc([N+](=O)[O-])cc2)c(=O)n(-c2ccccc2)n1C`?
Answer: GI50 [1]: > 100 µM (inactive); GI50 [2]: > 100 µM (inactive); GI50 [59]: > 100 µM (inactive); GI50 [3]: > 100 µM (inactive); GI50 [4]: > 100 µM (inactive); GI50 [5]: > 100 µM (inactive); GI50 [6]: > 100 µM (inactive); GI50 [52]: > 100 µM (inactive); GI50 [7]: > 100 µM (inactive); GI50 [8]: > 100 µM (inactive); GI50 [9]: > 100 µM (inactive); GI50 [10]: > 100 µM (inactive); GI50 [11]: > 100 µM (inactive); GI50 [12]: > 100 µM (inactive); GI50 [13]: > 100 µM (inactive); GI50 [53]: > 100 µM (inactive); GI50 [15]: > 100 µM (inactive); GI50 [16]: > 100 µM (inactive); GI50 [17]: > 100 µM (inactive); GI50 [18]: > 100 µM (inactive); GI50 [19]: > 100 µM (inactive); GI50 [20]: > 100 µM; GI50 [21]: > 100 µM (inactive); GI50 [22]: > 100 µM (inactive); GI50 [23]: > 100 µM (inactive); GI50 [55]: > 100 µM (inactive); GI50 [24]: > 100 µM (inactive); GI50 [25]: > 100 µM (inactive); GI50 [26]: > 100 µM (inactive); GI50 [27]: > 100 µM (inactive); GI50 [56]: > 100 µM (inactive); GI50 [28]: > 100 µM (inactive); GI50 [60]: > 100 µM (inactive); GI50 [29]: > 100 µM (inactive); GI50 [30]: > 100 µM (inactive); GI50 [31]: > 100 µM (inactive); GI50 [32]: > 100 µM (inactive); GI50 [33]: > 100 µM (inactive); GI50 [34]: > 100 µM (inactive); GI50 [35]: > 100 µM (inactive); GI50 [36]: > 100 µM (inactive); GI50 [37]: > 100 µM (inactive); GI50 [38]: > 100 µM (inactive); GI50 [39]: > 100 µM (inactive); GI50 [40]: > 100 µM (inactive); GI50 [41]: > 100 µM (inactive); GI50 [42]: > 100 µM (inactive); GI50 [43]: > 100 µM (inactive); GI50 [44]: > 100 µM (inactive); GI50 [45]: > 100 µM (inactive); GI50 [46]: > 100 µM (inactive); GI50 [47]: > 100 µM (inactive); GI50 [48]: > 100 µM (inactive); GI50 [49]: > 100 µM (inactive); GI50 [50]: > 100 µM (inactive); GI50 [51]: > 100 µM (inactive); GI50 [58]: > 100 µM (inactive)
